| Structure (SMILES) | melting point |
| --- | --- |
| N#CCCNC(=O)CCl | 96 to 98 °C |
| O=C(O)CCc1ccc(C(F)(F)F)cc1 | 106 to 110 °C |
| Sc1nnc(NCCCN2CCOCC2)s1 | 145 to 147 °C |
| O=C(O)Cn1cccc(C(F)(F)F)c1=O | 199 to 201 °C |
| CC(C)(C)NC(=O)Cc1ccc(N)cc1 | 113 to 115 °C |
| CC(C)(C)c1ccc(C(=O)O)s1 | 119 to 121 °C |
| O=C(O)c1cc(S(=O)(=O)N2CCCC2)ccc1Br | 216 to 218 °C |
| O=C(O)CNc1cccc(C(F)(F)F)c1 | 123 to 125 °C |
| Cc1ccccc1NC(=O)C(C)Cl (centres undefined) | 112 to 114 °C |
| Fc1ccc(-c2csc(Nc3ccccc3)n2)cc1 | 91 to 93 °C |
| O=C(O)c1c[nH]nc1C1CCCCC1 | 269 to 271 °C |
| NC(=S)C1CN2CCCC2CO1 (centres undefined) | 146 to 148 °C |
| N#CC1(NC(=O)CCl)CCCC1 | 74 to 76 °C |
| O=C(O)CCCNC(=O)c1ccsc1 | 235 to 237 °C |
| O=C(NCc1ccncc1)c1ccc(O)c(Cl)c1 | 179 to 181 °C |
| CC(C)(C)OC(=O)N1CCOCC1C#N (centres undefined) | 95 to 97 °C |
| COc1cccc(CN2C(=O)NC(=O)C2=O)c1 | 139 to 141 °C |
| Cc1ccccc1C(=O)NCCC(=O)O | 110 to 112 °C |
| CCN(CC)Cc1nc(Cl)c2c(C)c(C)sc2n1 | 30 to 32 °C |
| C=CCSc1nc2ccccc2[nH]1 | 139 to 141 °C |
| COC(=O)c1sc2ncccc2c1N | 191 to 193 °C |
| Nc1ccc(-c2nc(C3CC3)no2)cc1Cl | 97 to 99 °C |
| O=C(O)C1(c2cccc(Br)c2)CCCC1 | 158 to 160 °C |

| Structure (SMILES) | melting point |
| --- | --- |
| CC(C)(C)OC(=O)n1ccc(N)n1 | 129 to 131 °C |
| O=C(O)c1ccc(Cl)cc1I | 157 to 159 °C |
| O=C(O)/C=C/c1ccc(OCc2ccccn2)cc1 | 210 to 212 °C |
| Clc1nc(-c2cccnc2)nc2ccccc12 | 180 to 182 °C |
| CCNC(=O)c1cccc(N)c1 | 69 to 71 °C |
| O=C(CCl)Nc1cccc(Cl)c1 | 70 to 72 °C |
| Nc1ccc(F)c(NS(=O)(=O)Cc2ccccc2)c1 | 172 to 174 °C |
| NS(=O)(=O)c1cccc2ncccc12 | 179 to 181 °C |
| CCn1cc(C(F)(F)C(=O)O)cn1 | 99 to 101 °C |
| O=c1c2ccccc2nc(S)n1-c1nnc[nH]1 | 234 to 236 °C |
| O=C(O)c1ccccc1NS(=O)(=O)c1cccc([N+](=O)[O-])c1 | 185 to 187 °C |
| O=C(CCl)Nc1ccc(NC(=O)c2cccs2)cc1 | 243 to 245 °C |
| O=C(O)C1CC1c1ccco1 (centres undefined) | 51 to 53 °C |
| CN(C)S(=O)(=O)c1ccc(Cl)c([N+](=O)[O-])c1 | 104 to 106 °C |
| COc1ccc(N)cc1-n1cnnn1 | 139 to 141 °C |
| O=C(O)c1oc2ccccc2c1CO | 153 to 155 °C |
| CC(C)(C)OC(=O)NC1CC1 | 62 to 64 °C |
| Cc1ccc(-c2cnnc(N)n2)o1 | 274 to 276 °C |
| O=C(O)C1C2C3CC4C5CC(C42)C1C53 (centres undefined) | 101 to 103 °C |
| COC(=O)c1ccc2c(c1)CCN2 | 74 to 76 °C |
| Cc1oncc1C(=O)NC(C)C(=O)O (centres undefined) | 159 to 161 °C |
| CC1CN(c2ccc(NC(=O)CCl)cc2)CC(C)O1 (centres undefined) | 175 to 177 °C |
| NCC(O)c1cccs1 (centres undefined) | 81 to 83 °C |

| Structure (SMILES) | melting point |
| --- | --- |
| NC(=S)COc1ccc(F)cc1 | 120 to 122 °C |
| O=C(CCCl)N1CCN(c2ncccn2)CC1 | 139 to 141 °C |
| O=C(O)c1ccc(COc2ccc3ccccc3c2)o1 | 171 to 173 °C |
| Nc1cc(Cl)c(NC(=O)c2ccsc2)c(Cl)c1 | 206 to 208 °C |
| O=C(O)c1noc(-c2ccccc2)n1 | 111 to 113 °C |
| COc1ccc(C=CC(=O)O)cc1S(=O)(=O)N1CCOCC1 | 238 to 240 °C |
| NC(=O)c1c(N)sc2c1CCCC2 | 153 to 155 °C |
| Oc1ccc(-c2cnc3ccccc3n2)cc1 | 204 to 206 °C |
| Cc1cc(C)c(S(=O)(=O)N2CCC(C(=O)O)CC2)c(C)c1 | 181 to 183 °C |
| Cc1cccc(OCCC(=O)O)c1 | 99 to 101 °C |
| CS(=O)(=O)c1ccc(F)c(N)c1 | 69 to 71 °C |
| O=C1CCc2cc(O)ccc2N1 | 239 to 241 °C |
| NC(=S)C(NC(=O)c1ccccc1)C1CC1 (centres undefined) | 199 to 201 °C |
| Nc1nnc(-c2ccc(Br)cc2)[nH]1 | 214 to 216 °C |
| CC(=O)N(Cc1ccc(N)cc1)C(C)C | 110 to 112 °C |
| O=C(O)Cn1c(-c2cscn2)nc2ccccc21 | 256 to 258 °C |
| O=C(O)c1ccc(C(=O)c2cc[nH]c2)cc1 | 219 to 221 °C |
| O=C(O)C1CCCN(S(=O)(=O)c2ccc([N+](=O)[O-])cc2)C1 (centres undefined) | 221 to 223 °C |
| O=C(O)CCCSc1ccc(Cl)cc1 | 106 to 108 °C |
| O=C(O)CNc1ncccn1 | 169 to 171 °C |
| O=C(O)C1=CCCO1 | 98 to 100 °C |
| O=C(O)C1CCCN(S(=O)(=O)c2ccc(Br)cc2)C1 (centres undefined) | 207 to 209 °C |
| O=C(O)c1cnn(-c2ccc([N+](=O)[O-])cc2)c1 | 258 to 260 °C |

Second part, the compound after the results:

| melting point | Structure (SMILES) |
| --- | --- |
| 232 to 234 °C | O=c1[nH]c(-c2cnccn2)no1 |
| 269 to 271 °C | CC(=O)Nc1ccc(S(=O)(=O)NCc2ccc(C(=O)O)cc2)cc1 |
| 116 to 118 °C | C#CCN1CCCCC1C(=O)NC (centres undefined) |
| 104 to 106 °C | CC(C)(C)OC(=O)NCC#Cc1ccc(OCc2ccccc2)cc1 |
| 135 to 137 °C | O=C(O)C1CCS(=O)(=O)C1 (centres undefined) |
| 82 to 84 °C | CCC(Oc1ccccc1Cl)C(=O)O (centres undefined) |
| 143 to 145 °C | O=C(O)C(Oc1ccccc1Br)c1ccccc1 (centres undefined) |
| 115 to 117 °C | COC(=O)/C=C/c1ccc(OC)c(S(=O)(=O)Cl)c1 |
| 139 to 141 °C | O=Cc1ccc(-n2ccnc2)nc1 |
| 111 to 113 °C | OCCSc1ccnc2cc(Cl)ccc12 |
| 125 to 127 °C | CCN1CCN(C(=O)c2ccc(N)cc2)CC1 |
| 71 to 73 °C | NCCCN1CCCC(C(N)=O)C1 (centres undefined) |
| 191 to 193 °C | Cc1ccc(NC(=O)CC2(C(=O)O)CCCC2)cc1 |
| 138 to 140 °C | Cc1ccc(C(C)(C)C)cc1S(N)(=O)=O |
| 67 to 69 °C | CCC(Cc1ccccc1Br)C(=O)O (centres undefined) |
| 56 to 58 °C | N#CSCC(=O)c1ccccc1Cl |
| 129 to 131 °C | Cc1cc(C)c(C)c(OCCC(=O)O)c1 |
| 244 to 246 °C | Nc1nsc(N2CCCC2)n1 |
| 60 to 62 °C | O=C(CC1CCOCC1)c1ccccc1 |
| 49 to 51 °C | Nc1cnn(Cc2ccc(Cl)cc2)c1 |
| 138 to 140 °C | CC(N)c1cc(F)ccc1N1CCC(O)CC1 (centres undefined) |
| 168 to 170 °C | Cc1ccc(CNC(=O)c2c[nH]nc2N)cc1 |
| 135 to 137 °C | O=C(O)CCc1ccc2ccccc2c1 |
| 76 to 78 °C | Cc1cccnc1C(=O)NN |
| 220 to 222 °C | Fc1ccc2nc(S)n(-c3ccccc3F)c2c1 |

| melting point | Structure (SMILES) |
| --- | --- |
| 124 to 126 °C | Sc1nnc(NCc2ccco2)s1 |
| 152 to 154 °C | COc1ccc2c(c1)OCC(C(=O)O)C2 (centres undefined) |
| 249 to 251 °C | N#Cc1nc(Cl)cc(N)c1N |
| 44 to 46 °C | CCC(C)C(C)S(N)(=O)=O (centres undefined) |
| 97 to 99 °C | CS(=O)(=O)CC1(CBr)CCOCC1 |
| 199 to 201 °C | Cc1nnc(-c2cccc(CN)c2)[nH]1 |
| 232 to 234 °C | Cc1ccccc1Nc1nc2sc(C(=O)O)cc2s1 |
| 149 to 151 °C | CCC(Nc1nnnn1-c1ccccc1)C(=O)O (centres undefined) |
| 63 to 65 °C | C=CCNC(=O)CN1CCNCC1 |
| 192 to 194 °C | O=C(CCCl)Nc1ccc(N2CCOCC2)cc1 |
| 254 to 256 °C | COc1ccc2ccc(-c3nn(-c4ccccc4)cc3C(=O)O)cc2c1 |
| 72 to 74 °C | O=C(CBr)c1ccc2c(c1)CCO2 |
| 72 to 74 °C | Nc1ccc(OCc2ccco2)c(Cl)c1 |
| 74 to 76 °C | COc1cc(C=O)ccc1OCc1ccc(Br)cc1 |
| 190 to 192 °C | Cc1cccc2c(=O)[nH]c(CCl)nc12 |
| 160 to 162 °C | Cc1c(-c2ccncc2)n[nH]c1N |
| 150 to 152 °C | CC(=O)N(c1ccccc1)c1nc(C=O)cs1 |
| 119 to 121 °C | O=[N+]([O-])c1ccc(NCc2ccccn2)cc1 |
| 112 to 114 °C | CC(C)Cc1ccc(C(=O)c2cccs2)cc1 |
| 55 to 57 °C | Oc1ccccc1OCc1ccc(F)cc1 |
| 113 to 115 °C | O=Cc1cnc(-c2cccs2)s1 |
| 295 to 297 °C | Cc1cc(N)nc(S)n1 |
| 236 to 238 °C | NC(=C[N+](=O)[O-])N1CCOCC1 |
| 159 to 161 °C | c1ccc(-c2nc[nH]n2)nc1 |
| 102 to 104 °C | Oc1c(Cl)c(F)nc(F)c1Cl |

| melting point | Structure (SMILES) |
| --- | --- |
| 224 to 226 °C | Nc1c(C(=O)O)ccnc1Br |
| 65 to 67 °C | CNCc1ccc(C(=O)NC)o1 |
| 41 to 43 °C | Nn1ccccc1=O |
| 147 to 160 °C | COC(=O)C(F)c1nc2ccccc2c(=O)[nH]1 (centres undefined) |
| 59 to 61 °C | Clc1ccc(-n2cccn2)cc1Cl |
| 144 to 146 °C | CCCCCn1nc(C(=O)O)c2ccccc2c1=O |
| 228 to 230 °C | O=C(Nc1ccccc1)c1cccc(-n2ccnc2S)c1 |
| 207 to 209 °C | Cc1cccc(C)c1Nc1nnc(SCC(=O)O)s1 |
| 151 to 153 °C | O=C(Nc1cn[nH]c1)OCC(F)(F)F |
| 75 to 77 °C | CC(=CC(=O)O)c1ccccc1Cl |
| 149 to 151 °C | CC(C)(c1ccccc1)c1nnc(N)s1 |
| 204 to 206 °C | CN1C(=O)CCC(C(=O)O)C1c1ccccc1 (centres undefined) |
| 128 to 130 °C | CSc1ccc(C)c(C(=O)O)c1 |
| 177 to 179 °C | O=CC(Br)C=Nc1cnc(Br)cn1 (centres undefined) |
| 106 to 108 °C | CC(C)COc1ncc(C(=O)O)cc1Cl |
| 219 to 221 °C | Cc1nnc(S)n1-c1cccc(N)c1 |
| 259 to 261 °C | O=C(O)c1cnc2ccsc2c1 |
| 257 to 259 °C | O=C(O)c1cc2c(=O)n3ccccc3nc2n1Cc1ccccc1 |
| 185 to 187 °C | COc1ccccc1C(NC(=O)OC(C)(C)C)C(N)=NO (centres undefined) |
| 255 to 257 °C | O=C(O)c1c[nH]nc1-c1cccnc1 |
| 144 to 146 °C | Cn1c(=O)oc2cc(Br)ccc21 |
| 174 to 176 °C | O=C1c2ccccc2C(=O)N1C1CCC(O)CC1 (centres undefined) |
| 188 to 190 °C | CN1CCN(C)c2cc(N)ccc2C1=O |
| 122 to 124 °C | CC(=O)c1cccc(S(=O)(=O)N2CCC(C(=O)O)CC2)c1 |
| 300 to 302 °C | O=c1[nH]cnc2c1oc1ccccc12 |
